# Values quoted from earlier work as cited in patent publication US20210319872A1, “DRUG AND DEVICE COMBINATION PRODUCTS WITH IMPROVED SAFETY AND EFFICACY PROFILES” (priority 2016, published 2021).
# Where two headings read alike, the source gives them in different places.
compound,measurement,setting,value
Nc1nnc(-c2cccc(Cl)c2Cl)c(N)n1 [Lamictal XR],Anxiety,extended-release,3%
same,Asthenia,extended-release,6%
same,Blurred vision,extended-release,3%
same,Coordination problem,extended-release,3%
same,Depression,extended-release,3%
same,Diarrhea,extended-release,5%
same,Diplopia,extended-release,"extended-release, 5%)"
same,Dizziness,extended-release,14%
same,Nausea,extended-release,7%
same,Somnolence,extended-release,5%
same,Tremor,extended-release,6%
same,Vertigo,extended-release,"release, 3%)"
same,Vomiting,extended-release,6%
same,Anemia,immediate release,"Hematologic: Anemia (immediate release, less than 0.1%),"
same,Eosinophilia,immediate release,< 0.1%
same,Thrombocytopenia,immediate release,"< 1%), Thrombocytopenia (immediate release, less than 0.1%)"
same,Anxiety,immediate-release,"Psychiatric: Anxiety (immediate-release, 4%; extended-release,"
same,Depression,immediate-release,4%
same,Headache,immediate-release,"Headache (immediate-release, 29%), Insomnia (immediate-release,"
same,Pain,immediate-release,"Other: Pain (immediate-release, 5%)"
same,Vertigo,immediate-release,2%
same,Blurred vision,"immediate-release, children",4%
same,Diplopia,"immediate-release, children",5%
same,Angioedema,in vivo,< 0.1%
same,Erythema multiforme,in vivo,"Dermatologic: Erythema multiforme (less than 0.1%), Rash,"
same,"Serious side effect, Hematologic",listed without frequency,"Disseminated intravascular coagulation, Eosinophilia (immediate"
same,"Serious side effect, Hepatic",listed without frequency,Hepatic: Liver failure
same,"Serious side effect, Immunologic",listed without frequency,Immunologic: Drug hypersensitivity syndrome
same,"Serious side effect, Neurologic",listed without frequency,Neurologic: Aseptic meningitis
Nc1nnc(-c2cccc(Cl)c2Cl)c(N)n1 [Lamotrigine (Lamictal)],Abdominal pain,in vivo,"Gastrointestinal: Abdominal pain (immediate-release, 5% to 10%),"
same,Anemia,in vivo,"Hematologic: Anemia (immediate release, less than 0.1%),"
same,Angioedema,in vivo,"Other: Angioedema (less than 0.1%), Neuroleptic malignant"
same,Ataxia,in vivo,"release, 6%), Ataxia (immediate-release, 2% to 11%), Coordination"
same,Coordination problem,in vivo,"problem (immediate-release, 6% to 7%; extended-release, 3%),"
same,Depression,in vivo,"3%), Depression (immediate-release, 4%; extended-release, 3%)"
same,Diarrhea,in vivo,"Diarrhea (immediate-release, 6% to 11%; extended-release, 5%),"
same,Dizziness,in vivo,"Dizziness (immediate-release, 7% to 54%; extended release, 14%),"
same,Dysmenorrhea,in vivo,"Reproductive: Dysmenorrhea (immediate-release, 5% to 7%)"
same,Headache,in vivo,"Headache (immediate-release, 29%), Insomnia (immediate-release,"
same,Indigestion,in vivo,"Indigestion (immediate-release, 2% to 7%), Nausea (immediate-"
same,Insomnia,in vivo,"5% to 10%), Somnolence (immediate-release, 9% to 17%;"
same,Nausea,in vivo,"release, 7% to 25%; extended-release, 7%), Vomiting (immediate-"
same,Pain,in vivo,"Other: Pain (immediate-release, 5%)"
same,Rash,in vivo,Dermatologic: Rash (7% to 14%)
same,"Rash, Serious",in vivo,"Serious (0.08% to 0.8%), Stevens-Johnson syndrome (0.08% to"
same,Rhinitis,in vivo,"Respiratory: Rhinitis (immediate-release, 7% to 14%)"
same,Vomiting,in vivo,"release, 5% to 20%; extended-release, 6%))"
Cl.O=C1[C@@H]2[C@H]3CC[C@H](C3)[C@@H]2C(=O)N1C[C@@H]1CCCC[C@H]1CN1CCN(c2nsc3ccccc23)CC1 [Latuda],Akathisia,in vivo,"Neurologic: Akathisia (5.6% to 22%), Extrapyramidal disease"
same,Anxiety,in vivo,Psychiatric: Anxiety (4% to 5%)
same,Cerebrovascular accident,in vivo,"Neurologic: Cerebrovascular accident (0.1% to 1%), Seizure (less"
same,Diarrhea,in vivo,"Gastrointestinal: Diarrhea (3% to 5%), Nausea (10% to 17%),"
same,Nausea,in vivo,"Gastrointestinal: Diarrhea (3% to 5%), Nausea (10% to 17%),"
same,Orthostatic hypotension,in vivo,"Cardiovascular: Orthostatic hypotension (0.3% to 2.1%), Syncope"
same,"Serious side effect, Hematologic",in vivo,Hematologic: Agranulocytosis
same,"Serious side effect, Other",in vivo,Other: Neuroleptic malignant syndrome
same,Serum creatinine raised,in vivo,Renal: Serum creatinine raised (2% to 4%)
same,Suicidal thoughts,in vivo,Psychiatric: Suicidal thoughts (0.4% to 1.1%)
same,Syncope,in vivo,(0.1%)
same,Vomiting,in vivo,Vomiting (2% to 8%)
CC[C@@H](C(N)=O)N1CCCC1=O [Levetiracetam (Keppra)],Asthenia,in vivo,"Neurologic: Asthenia (15%), Dizziness (5% to 9%), Headache"
same,Cough,in vivo,"Respiratory: Cough (2% to 9%), Nasopharyngitis (7% to 15%)"
same,Decreased bone mineral density,in vivo,"Musculoskeletal: Decreased bone mineral density (70%), Neck pain"
same,Decreased white blood cell count,in vivo,"blood cell count (2.4% to 3.2%), Eosinophilia (8.6%), Neutropenia"
same,Dizziness,in vivo,"Neurologic: Asthenia (15%), Dizziness (5% to 9%), Headache"
same,Eosinophilia,in vivo,"blood cell count (2.4% to 3.2%), Eosinophilia (8.6%), Neutropenia"
same,Fatigue,in vivo,Other: Fatigue (10% to 11%)
same,Headache,in vivo,(14% to 19%)
same,Infectious disease,in vivo,Immunologic: Infectious disease (13%)
same,Nasopharyngitis,in vivo,"Respiratory: Cough (2% to 9%), Nasopharyngitis (7% to 15%)"
same,Neck pain,in vivo,(2% to 8%)
same,Neutropenia,in vivo,"(partial onset seizures, adults, 2.4%), Pancytopenia,"
same,Somnolence,in vivo,Neurologic: Somnolence (8% to 45%)
same,Suicidal intent,in vivo,"Psychiatric: Suicidal intent (0.5%), Suicide"
same,Vomiting,in vivo,"Gastrointestinal: Loss of appetite (3% to 8%), Vomiting (15%)"
C[C@@H](Cc1ccccc1)NC(=O)[C@@H](N)CCCCN [Lisdexamfetamine (Vyvanse)],Anxiety,in vivo,"Psychiatric: Anxiety (Adults, 5% to 6%), Irritability (pediatrics,"
same,"Common side effects, listed without incidence",in vivo,"Endocrine metabolic: Decreased body growth, Weight decreased"
same,Diarrhea,in vivo,"Gastrointestinal: Diarrhea (adults, 7%), Loss of appetite (adults, 8%"
same,Irritability,in vivo,10%)
same,Rash,in vivo,"Dermatologic: Rash (pediatrics, 3%)"
same,Upper abdominal pain,in vivo,"6%), Upper abdominal pain (pediatrics, 12%), Vomiting"
same,Vomiting,in vivo,"(pediatrics, 9%), Xerostomia (Adults, 26% to 36%; pediatrics, 4%"
same,Weight decreased,in vivo,"(pediatrics, 9%)"
same,Xerostomia,in vivo,"(pediatrics, 9%), Xerostomia (Adults, 26% to 36%; pediatrics, 4%"
"NCCCC[C@H](N[C@@H](CCc1ccccc1)C(=O)O)C(=O)N1CCC[C@H]1C(=O)O [Lisinopril (Prinivil, Zestril)]",Dizziness,in vivo,"Neurologic: Dizziness (12% to 19%), Headache"
same,Hyperkalemia,in vivo,Endocrine metabolic: Hyperkalemia (2.2% to 6%)
same,Hypotension,in vivo,"Cardiovascular: Chest pain, Hypotension (up to 11%), Syncope"
same,Hypotension (Severe),in vivo,Cardiovascular: Hypotension (Severe) (9%)
same,Renal impairment,in vivo,"Renal: Acute renal failure, Renal impairment (2.4%)"
same,Stevens-Johnson syndrome,in vivo,"Dermatologic: Stevens-Johnson syndrome (1% or more), Toxic"
same,Syncope,in vivo,(5% to 7%)
O=C1Nc2ccc(Cl)cc2C(c2ccccc2Cl)=NC1O (stereo not drawn) [Lorazepam (Ativan)],Acidosis,in vivo,Endocrine metabolic: Acidosis (less than 1%)
same,Asthenia,in vivo,"Neurologic: Asthenia (4.2%), Dizziness (6.9%), Sedated (15.9%),"
same,"Common side effects, listed without incidence",in vivo,Psychiatric: Depression
same,Dizziness,in vivo,"Neurologic: Asthenia (4.2%), Dizziness (6.9%), Sedated (15.9%),"
same,Sedated,in vivo,"Neurologic: Asthenia (4.2%), Dizziness (6.9%), Sedated (15.9%),"
same,"Serious side effects, listed without incidence or only as rare",in vivo,Psychiatric: Delirium
same,Unsteadiness present,in vivo,Unsteadiness present (3.4%)
CCCCc1nc(Cl)c(CO)n1Cc1ccc(-c2ccccc2-c2nnn[nH]2)cc1 [Losartan (Cozaar)],Anemia,in vivo,Hematologic: Anemia (14%)
same,Chest pain,in vivo,"Cardiovascular: Chest pain (12%), Hypotension (7%)"
same,Cough,in vivo,Respiratory: Cough (10%)
same,Diarrhea,in vivo,Gastrointestinal: Diarrhea (15%)
same,Dizziness,in vivo,"Neurologic: Asthenia, Dizziness (3%)"
same,Hyperkalemia,in vivo,"Endocrine metabolic: Hyperkalemia (7%), Hypoglycemia (14%)"
same,Hypoglycemia,in vivo,"Endocrine metabolic: Hyperkalemia (7%), Hypoglycemia (14%)"
same,Hypotension,in vivo,"Cardiovascular: Chest pain (12%), Hypotension (7%)"
CN1CCN(C(=O)O[C@H]2c3nccnc3C(=O)N2c2ccc(Cl)cn2)CC1 [Lunesta (eszopiclone)],Angioedema,in vivo,Other: Angioedema (rare)
same,Disorder of taste,in vivo,"Gastrointestinal: Disorder of taste (8% to 34%), Vomiting (3%)"
same,Dizziness,in vivo,"Neurologic: Dizziness (1% to 7%), Headache (13% to 21%),"
same,Headache,in vivo,"Neurologic: Dizziness (1% to 7%), Headache (13% to 21%),"
same,Migraine,in vivo,Migraine (1% or greater)
same,Respiratory tract infection,in vivo,Respiratory: Respiratory tract infection (5% to 10%)
same,Vomiting,in vivo,"Gastrointestinal: Disorder of taste (8% to 34%), Vomiting (3%)"
CCC(=O)C(CC(C)N(C)C)(c1ccccc1)c1ccccc1 (stereo not drawn) [Methadone],"Common side effect, Cardiovascular",in vivo,Cardiovascular: Hypotension
same,"Common side effect, Endocrine metabolic",in vivo,Endocrine metabolic: Diaphoresis
same,"Common side effect, Gastrointestinal",in vivo,"Gastrointestinal: Constipation, Nausea, Vomiting"
same,"Common side effect, Neurologic",in vivo,"Neurologic: Asthenia, Dizziness, Lightheadedness, Sedated"
same,"Serious side effect, Endocrine metabolic",in vivo,Endocrine metabolic: Hypoglycemia
same,"Serious side effect, Other",in vivo,Other: Drug dependence
same,"Serious side effect, Respiratory",in vivo,"Respiratory: Respiratory acidosis, Respiratory arrest, Respiratory"
COC(=O)C(c1ccccc1)C1CCCCN1 (stereo not drawn) [Methylphenidate],Aggressive behavior,in vivo,"Psychiatric: Aggressive behavior (Adult, 1.7%), Mania, Psychotic"
same,Decrease in appetite,in vivo,"appetite (Adult, 25.3%; pediatric, 2% to 9% or greater), Loss of"
same,Diaphoresis,in vivo,"Dermatologic: Diaphoresis (Adult, 5.1%)"
same,Dizziness,in vivo,"Neurologic: Dizziness (Adult, 6.7%; pediatric, 1.9%.), Headache"
same,Headache,in vivo,"(Adult, 22.2%; pediatric, up to 12%), Insomnia (Adult, 12.3%;"
same,Irritability,in vivo,"3.9%), Irritability (Adult, 5.8%)"
same,Nausea,in vivo,"(Adult, 12.8%), Vomiting (2% or greater), Xerostomia (Adult,"
same,"Serious side effect, Endocrine metabolic",in vivo,Endocrine metabolic: Decreased body growth
same,"Serious side effect, Gastrointestinal",in vivo,"Gastrointestinal: Gastrointestinal obstruction, with preexisting"
same,"Serious side effect, Hepatic",in vivo,Hepatic: Abnormal liver function
same,"Serious side effect, Psychiatric",in vivo,"Psychiatric: Aggressive behavior (Adult, 1.7%), Mania, Psychotic"
same,"Serious side effect, Reproductive",in vivo,Reproductive: Priapism
same,Tachycardia,in vivo,"Cardiovascular: Tachycardia (Adult, 4.8%)"
same,Vomiting,in vivo,"(Adult, 12.8%), Vomiting (2% or greater), Xerostomia (Adult,"
same,Weight decreased,in vivo,"Endocrine metabolic: Weight decreased (Adult, 6.5%)"
same,Xerostomia,in vivo,14%)
